Experimental data from patent USRE38425E1, “Semicarbazones having CNS activity and pharmaceutical preparations containing same” (University of Saskatchewan Technologies, Inc., priority 1995, dated 2004).

How the values were obtained:
mice [1] = conditions: for neurotoxicity screen TD50: intraperitoneal injection in mice, time t (h) per compound as in the table
mice [2] = assay: MES screen after intraperitoneal injection in mice; assay type: in vivo; conditions: intraperitoneal injection in mice; time t (h) per compound as in the table
rats [3] = assay: MES screen after oral administration to rats; conditions: oral administration to rats; for MES screen ED50: time t (h) per compound as in the table
rats [4] = assay: neurotoxicity screen after oral administration to rats; conditions: oral administration to rats; time t (h) per compound as in the table
mice [5] = conditions: intraperitoneal injection in mice; time t (h) per compound as in the table

Structure (SMILES)	neurotoxicity screen TD50 (mice [1])	MES screen ED50 (mice [2])	MES screen ED50 (rats [3])	neurotoxicity screen TD50 (rats [4])	acPTZ screen ED50 (mice [5])	MES screen: number of rats out of 4 which were protected (rats [3]; dose 30 mg/kg, 0.5 h)	MES screen: number of rats out of 4 which were protected (rats [3]; dose 30 mg/kg, 1 h)	MES screen: number of rats out of 4 which were protected (rats [3]; dose 30 mg/kg, 2 h)	MES screen: number of rats out of 4 which were protected (rats [3]; dose 12.5 mg/kg, 0.5 h)	MES screen: number of rats out of 4 which were protected (rats [3]; dose 12.5 mg/kg, 1 h)	MES screen: number of rats out of 4 which were protected (rats [3]; dose 12.5 mg/kg, 2 h)	MES screen: number of rats out of 4 which were protected (rats [3]; dose 12.5 mg/kg, 4 h)	further results
CC(C)(C)c1ccc(Oc2ccc(C=NNC(N)=O)cc2)cc1 [Compound 5s]	105.92 mg/kg	8.87 mg/kg	1.68 mg/kg	>500 mg/kg	>150.00 mg/kg								MES screen 1 h: number of rats out of 4 which were protected (rats [3]; dose 12.5 mg/kg, 1 h): 4; MES screen 2 h: number of rats out of 4 which were protected (rats [3]; dose 12.5 mg/kg, 2 h): 4; MES screen 4 h: number of rats out of 4 which were protected (rats [3]; dose 12.5 mg/kg, 4 h): 4
CC(C)(C)CC(C)(C)c1ccc(Oc2ccc(C=NNC(N)=O)cc2)cc1 [Compound 5t]	124.53 mg/kg	11.27 mg/kg			>200 mg/kg								
CCCCOc1ccc(Oc2ccc(C=NNC(N)=O)cc2)cc1 [Compound 5u]			45.81 mg/kg										MES screen 4 h: number of rats out of 4 which were protected (rats [3]; dose 12.5 mg/kg, 4 h): 2
CCCCCCCOc1ccc(Oc2ccc(C=NNC(N)=O)cc2)cc1 [Compound 5v]													toxicity screen 4 h: minimum dose whereby bioactivity was demonstrated in half or more of the mice (mice [1]; mouse, in vivo): −
CC(=NNC(N)=O)c1ccc(Oc2ccccc2)cc1 [Compound 13a]	73.48 mg/kg	9.08 mg/kg	9.73 mg/kg		43.31 mg/kg	4	4	4					MES screen: number of rats out of 4 which were protected (rats [3]; dose 30 mg/kg, 0.25 h): 4; MES screen: number of rats out of 4 which were protected (rats [3]; dose 30 mg/kg, 4 h): 4
CC(=NNC(N)=O)c1ccc(Oc2ccc(F)cc2)cc1 [Compound 13b]	60.74 mg/kg	11.63 mg/kg	3.37 mg/kg	108.77 mg/kg	>80 mg/kg				4	4	4	4	
CC(=NNC(N)=O)c1ccc(Oc2ccc(Cl)cc2)cc1 [Compound 13c]			2.92 mg/kg	<500 mg/kg		4	4	4					MES screen: number of rats out of 4 which were protected (rats [3]; dose 30 mg/kg, 0.25 h): 3; MES screen: number of rats out of 4 which were protected (rats [3]; dose 30 mg/kg, 4 h): 4
CC(=NNC(N)=O)c1ccc(Oc2ccc(Br)cc2)cc1 [Compound 13d]			1.52 mg/kg	>500 mg/kg					3	4	4	4	MES screen: number of rats out of 4 which were protected (rats [3]; dose 12.5 mg/kg, 0.25 h): 1
CCC(=NNC(N)=O)c1ccc(Oc2ccccc2)cc1 [Compound 13e]			23.08 mg/kg			4	3	3					MES screen: number of rats out of 4 which were protected (rats [3]; dose 30 mg/kg, 0.25 h): 1
CCC(=NNC(N)=O)c1ccc(Oc2ccc(F)cc2)cc1 [Compound 13f]	35.26 mg/kg	5.46 mg/kg	4.25 mg/kg		12.84 mg/kg				2	4	4	4	
CCC(=NNC(N)=O)c1ccc(Oc2ccc(Cl)cc2)cc1 [Compound 13g]	<100 mg/kg	11.09 mg/kg	2.89 mg/kg	>500 mg/kg		1	4	4					MES screen: number of rats out of 4 which were protected (rats [3]; dose 30 mg/kg, 4 h): 4
CCC(=NNC(N)=O)c1ccc(Oc2ccc(Br)cc2)cc1 [Compound 13h]			4.39 mg/kg						2	4	4	4	
CC(=NNC(N)=O)c1ccccc1Oc1ccc(F)cc1 [Compound 14b]			43.37 mg/kg			1	3	3					MES screen: number of rats out of 4 which were protected (rats [3]; dose 30 mg/kg, 0.25 h): 1; MES screen: number of rats out of 4 which were protected (rats [3]; dose 30 mg/kg, 4 h): 2
NC(=O)NN=Cc1ccc(OS(=O)(=O)c2ccccc2)cc1 [Compound 15f]	113.00 mg/kg	25.27 mg/kg			>100 mg/kg				2	2	4	3	MES screen: number of rats out of 4 which were protected (rats [3]; dose 12.5 mg/kg, 0.25 h): 1
